From article PMC5559490, “Synthesis of Saccharumoside-B analogue with potential of antiproliferative and pro-apoptotic activities” (Scientific Reports, 2017)
Where two headings read alike, the source gives them in different places.

What was measured:
[1] = system: MIA PaCa-2 pancreatic cancer cells; experiment: MTT antiproliferative assay, MIA PaCa-2; format: cell-based; settings: Homo sapiens
[2] = system: DU145 prostate cancer cells; experiment: MTT antiproliferative assay, DU145; format: cell-based; settings: Homo sapiens
[3] = system: MCF-7 breast cancer cells; experiment: MTT antiproliferative assay, MCF-7; format: cell-based; settings: Homo sapiens
[4] = system: CaCo-2 colon cancer cells; experiment: MTT antiproliferative assay, CaCo-2; format: cell-based; settings: Homo sapiens
[5] = system: HL-60 leukemia cells; experiment: MTT antiproliferative assay, HL-60; format: cell-based, human; settings: Homo sapiens
[6] = system: HeLa cervical cancer cells; experiment: MTT antiproliferative assay, HeLa; format: cell-based; settings: Homo sapiens, read-out: IC50 HeLa Cervical
[7] = system: MCF-10A mammary epithelial cells; experiment: MTT assay on normal MCF-10A cells; format: cell-based; settings: Homo sapiens, 48 h, read-out: IC50 MCF-10A Breast (normal cell line)
[8] = system: human peripheral blood mononuclear cells (PBMC); experiment: MTT assay on normal PBMC; format: cell-based; settings: 48 h, read-out: IC50 PBMC (normal cells)
[9] = system: MCF-7 cells; experiment: Rhodamine-123 mitochondrial membrane potential assay, MCF-7; format: cell-based, human; settings: 24 h
Description: [Worded in the source for another cell line; this cell line is reported under the same test.] Mitochondrial membrane potential changes (ΔΨm) were determined by flow cytometry using rhodamine-123 (green-fluorescent dye)[32]. MIA PaCa-2 pancreatic cancer cells (1 × 10^6 cells/well) were exposed to the isolated compound (5 µM) for 24 h. Further, rhodamine-123 (200 nM) was added to the cells, which were kept in dark for 35 min. The cells were further centrifuged and the pellet was washed with phosphate buffered saline (1 ml). The intensity of fluorescence in the cells represented the mitochondrial membrane potential change (ΔΨm), which was measured using a flow cytometer.

[10] = MIA PaCa-2, MTT assay, cancer cell line, mean of three independent experiments ± S.E.M., read-out: IC50 MIA PaCa-2 Pancreatic
[11] = DU-145, MTT assay, cancer cell line, mean of three independent experiments ± S.E.M., read-out: IC50 DU145 Prostate
[12] = MCF7, MTT assay, cancer cell line, mean of three independent experiments ± S.E.M., read-out: IC50 MCF-7 Breast
[13] = Caco-2, MTT assay, cancer cell line, mean of three independent experiments ± S.E.M., read-out: IC50 CaCo-2 Colon
[14] = HL-60, MTT assay, cancer cell line, mean of three independent experiments ± S.E.M., read-out: IC50 HL-60 Leukemia
[15] = MTT assay, cancer cell line, mean of three independent experiments ± S.E.M.

Row | melting point [°C] | IC50 [1, 10] [µM] | IC50 [2, 11] [µM] | IC50 [3, 12] [µM] | IC50 [4, 13] [µM] | IC50 [5, 14] [µM] | IC50 [6, 15] [µM] | SMILES | IC50 ([1]; MIA PaCa-2, read-out: IC50 MIA PaCa-2 Pancreatic) [µM] | IC50 ([2]; DU-145, read-out: IC50 DU145 Prostate) [µM] | IC50 ([3]; MCF7, read-out: IC50 MCF-7 Breast) [µM] | IC50 ([4]; Caco-2, read-out: IC50 CaCo-2 Colon) [µM] | IC50 ([5]; HL-60, read-out: IC50 HL-60 Leukemia) [µM] | IC50 [6] [µM] | IC50 [7] [µM] | IC50 [8] [µM] | IC50 ([7]; MTT assay, normal cells) [µM] | IC50 ([8]; MTT assay, normal cells) [µM] | mitochondria membrane potential loss ([9]; 5 µM) [%] | mitochondria membrane potential loss ([9]; 10 µM) [%]
1 | 194 to 196 | 33.9 ± 1.41 | 42.1 ± 1.52 | 33.9 ± 0.48 | 49.04 ± 0.48 | 30.2 ± 1.32 | 35.4 ± 2.2 | COc1cc(CO)ccc1OC1OC(COC(=O)c2cccnc2)C(O)C(O)C1O (stereo not drawn) [Compound 9h, (6-(4-(hydroxymethyl)-2-methoxyphenoxy)-tetrahydro-3,4,5-trihydroxy-2H-pyran-2-yl)methyl nicotinate] | – | – | – | – | – | – | – | – | > 100 | > 100 | – | –
2 | 187 to 189 | 39.3 ± 1.42 | 37.3 ± 2.54 | 26.4 ± 0.96 | 47.3 ± 1.62 | 22.8 ± 1.3 | 36.7 ± 2.31 | COc1cc(CO)ccc1OC1OC(COC(=O)c2ccccc2)C(O)C(O)C1O (stereo not drawn) [Compound 9b, (6-(4-(hydroxymethyl)-2-methoxyphenoxy)-tetrahydro-3,4,5-trihydroxy-2H-pyran-2-yl)methyl benzoate] | – | – | – | – | – | – | – | – | > 100 | > 100 | – | –
3 | 228 to 230 | 13.3 ± 0.25 | 12.4 ± 0.47 | 9.34 ± 0.48 | 13.7 ± 0.63 | 12.5 ± 0.81 | 14.2 ± 0.68 | COc1cc(CO)ccc1OC1OC(COC(=O)c2ccc(C)cc2)C(O)C(O)C1O (stereo not drawn) [Compound 9c, (6-(4-(hydroxymethyl)-2-methoxyphenoxy)-tetrahydro-3,4,5-trihydroxy-2H-pyran-2-yl)methyl 4-methylbenzoate] | – | – | – | – | – | – | – | – | > 100 | > 100 | – | –
4 | 124 to 126 | 26.8 ± 1.25 | 37.9 ± 2.48 | 35 ± 1.52 | 45.2 ± 1.79 | 28.3 ± 1.72 | 32.1 ± 1.35 | COc1cc(CO)cc(OC)c1OC1OC(COC(=O)c2ccccc2I)C(O)C(O)C1O (stereo not drawn) [Compound 9n, (6-(4-(hydroxymethyl)-2,6-dimethoxyphenoxy)-tetrahydro-3,4,5-tri hydroxy-2H-pyran-2-yl)methyl 2-iodobenzoate] | – | – | – | – | – | – | – | – | > 100 | > 100 | – | –
5 | 168 to 170 | 36.3 ± 1.58 | 49.4 ± 1.72 | 33.4 ± 0.76 | 43.5 ± 1.87 | 22.2 ± 1.32 | – | COc1cc(CO)ccc1OC1OC(COC(=O)c2cc(OC)c(OC)c(OC)c2)C(O)C(O)C1O (stereo not drawn) [Compound 9e, (6-(4-(hydroxymethyl)-2-methoxyphenoxy)-tetrahydro-3,4,5-trihydroxy-2H-pyran-2-yl)methyl 3,4,5-trimethoxybenzoate] | – | – | – | – | – | – | – | – | > 100 | > 100 | – | –

The next lines start with the compound.

Row | SMILES | melting point [°C] | IC50 [1, 10] [µM] | IC50 [2, 11] [µM] | IC50 [3, 12] [µM] | IC50 [4, 13] [µM] | IC50 [5, 14] [µM] | IC50 [6, 15] [µM] | IC50 ([1]; MIA PaCa-2, read-out: IC50 MIA PaCa-2 Pancreatic) [µM] | IC50 ([2]; DU-145, read-out: IC50 DU145 Prostate) [µM] | IC50 ([3]; MCF7, read-out: IC50 MCF-7 Breast) [µM] | IC50 ([4]; Caco-2, read-out: IC50 CaCo-2 Colon) [µM] | IC50 ([5]; HL-60, read-out: IC50 HL-60 Leukemia) [µM] | IC50 [6] [µM] | IC50 [7] [µM] | IC50 [8] [µM] | IC50 ([7]; MTT assay, normal cells) [µM] | IC50 ([8]; MTT assay, normal cells) [µM] | mitochondria membrane potential loss ([9]; 5 µM) [%] | mitochondria membrane potential loss ([9]; 10 µM) [%]
6 | COc1cc(CO)ccc1OC1OC(COC(=O)c2cc([N+](=O)[O-])cc([N+](=O)[O-])c2)C(O)C(O)C1O (stereo not drawn) [Compound 9i, (6-(4-(hydroxymethyl)-2-methoxyphenoxy)-tetrahydro-3,4,5-trihydroxy-2H-pyran-2-yl)methyl 3,5-dinitrobenzoate] | 186 to 188 | – | – | – | – | – | – | 34.8 ± 1.93 | 43.6 ± 1.87 | 34.8 ± 0.51 | 47 ± 2.58 | 29.6 ± 0.83 | 38.4 ± 1.53 | > 100 | > 100 | – | – | – | –
7 | COc1cc(C(=O)OC[C@H]2O[C@@H](Oc3ccc(CO)cc3OC)[C@H](O)[C@@H](O)[C@@H]2O)ccc1O [Compound 10, (6-(4-(hydroxymethyl)-2-methoxyphenoxy)-tetrahydro-3,4,5-trihydroxy-2H-pyran-2-yl) methyl 4-hydroxy-3-methoxy benzoate] | 200 to 202 | 28.3 ± 0.76 | 33.5 ± 1.43 | 24.9 ± 1.67 | 44.7 ± 2.52 | 31.8 ± 1.82 | 39.9 ± 2.6 | – | – | – | – | – | – | – | – | > 100 | > 100 | – | –
8 | COc1cc(OC)cc(C(=O)OCC2OC(Oc3ccc(CO)cc3OC)C(O)C(O)C2O)c1 (stereo not drawn) [Compound 9d, (6-(4-(hydroxymethyl)-2-methoxyphenoxy)-tetrahydro-3,4,5-trihydroxy-2H-pyran-2-yl)methyl 3,5-dimethoxybenzoate] | 199 to 201 | 44.6 ± 2.67 | 42.5 ± 1.51 | 28.3 ± 1.47 | 37.4 ± 1.65 | 25.2 ± 1.92 | 39.5 ± 2.43 | – | – | – | – | – | – | – | – | > 100 | > 100 | – | –
9 | COc1cc(CO)cc(OC)c1OC1OC(COC(=O)c2ccc(F)cc2)C(O)C(O)C1O (stereo not drawn) [Compound 9m, (6-(4-(hydroxymethyl)-2,6-dimethoxyphenoxy)-tetrahydro-3,4,5-tri hydroxy-2H-pyran-2-yl)methyl 4-fluorobenzoate] | 170 to 172 | 47.3 ± 2.54 | 33.8 ± 1.27 | 28.4 ± 0.69 | 35.6 ± 1.46 | 21.8 ± 1.53 | 34.1 ± 1.83 | – | – | – | – | – | – | – | – | > 100 | > 100 | – | –
10 | CC[C@@]1(O)C(=O)OCc2c1cc1n(c2=O)Cc2cc3ccccc3nc2-1 [Camptothecin, camptothecin, reference compound] | – | 4.24 ± 0.41 | 6.75 ± 0.45 | 5.16 ± 0.32 | 3.68 ± 0.21 | 4.95 ± 0.5 | 4.28 ± 0.32 | – | – | – | – | – | – | – | – | > 100 | > 100 | 53.33 ± 3.06 | 62 ± 2.31
11 | COc1cc(OC)cc(C(=O)OCC2OC(Oc3c(OC)cc(CO)cc3OC)C(O)C(O)C2O)c1 (stereo not drawn) [Compound 9l, (6-(4-(hydroxymethyl)-2,6-dimethoxyphenoxy)-tetrahydro-3,4,5-trihydroxy-2H-pyran-2-yl)methyl 3,5-dimethoxybenzoate] | 131 to 133 | 43.8 ± 1.75 | 49.6 ± 3.59 | 33.8 ± 0.73 | 41.1 ± 1.48 | 31.8 ± 1.58 | 36.3 ± 1.76 | – | – | – | – | – | – | – | – | > 100 | > 100 | – | –
12 | COc1cc(CO)cc(OC)c1OC1OC(COC(=O)c2ccc(C)cc2)C(O)C(O)C1O (stereo not drawn) [Compound 9k, (6-(4-(hydroxymethyl)-2,6-dimethoxyphenoxy)-tetrahydro-3,4,5-trihydroxy-2H-pyran-2-yl)methyl 4-methylbenzoate] | 201 to 203 | 23.9 ± 0.74 | 42.8 ± 0.59 | 22 ± 0.72 | 28.3 ± 1.47 | 18.5 ± 0.78 | 26.6 ± 1.37 | – | – | – | – | – | – | – | – | > 100 | > 100 | – | –
13 | COc1cc(CO)cc(OC)c1OC1OC(COC(=O)c2ccccc2)C(O)C(O)C1O (stereo not drawn) [Compound 9j, (6-(4-(hydroxymethyl)-2,6-dimethoxyphenoxy)-tetrahydro-3,4,5-trihydroxy-2H-pyran-2-yl)methyl benzoate] | 180 to 182 | 45.76 ± 0.42 | 36.8 ± 0.59 | 29.4 ± 0.79 | 33.6 ± 1.51 | 25.6 ± 0.94 | 30.4 ± 2.81 | – | – | – | – | – | – | – | – | > 100 | > 100 | – | –
14 | COc1cc(CO)ccc1OC1OC(COC(=O)c2ccccc2I)C(O)C(O)C1O (stereo not drawn) [Compound 9g, (6-(4-(hydroxymethyl)-2-methoxyphenoxy)-tetrahydro-3,4,5-trihydroxy-2H-pyran-2-yl)methyl 2-iodobenzoate] | 128 to 130 | 23.4 ± 1.53 | 38.32 ± 0.37 | 28.9 ± 0.47 | 43.9 ± 2.52 | 33.5 ± 1.45 | 41.9 ± 3.15 | – | – | – | – | – | – | – | – | > 100 | > 100 | – | –
